# Values quoted from earlier work in patent US20260356814A1, “INDOLINE DERIVATIVES AS SEROTONERGIC AGENTS USEFUL FOR THE TREATMENT OF DISORDERS RELATED THERETO” (MINDSET PHARMA INC., priority 2022, published 2026).
# Read-outs that look alike come from different tables or passages of the source.
# What was measured:
# [1] = tested on: depression and anxiety associated with life-threatening disease; details: in a supportive setting; cited from earlier work
# [2] = target: 5-HT2A and 5-HT2C receptors; details: compared with LSD; cited from earlier work
# [3] = tested on: absolute metabolic rate of glucose in frontal and other cortical regions, striatal and limbic subcortical structures; details: 15 or 20 mg orally, healthy participants; cited from earlier work
# tobacco use disorder = details: cited from earlier work
# human 5-HT2A receptor = human 5-HT2A receptor (Homo sapiens, UniProt P28223); details: cited from earlier work
# Sequence of human 5-HT2A receptor (P28223 whole entry): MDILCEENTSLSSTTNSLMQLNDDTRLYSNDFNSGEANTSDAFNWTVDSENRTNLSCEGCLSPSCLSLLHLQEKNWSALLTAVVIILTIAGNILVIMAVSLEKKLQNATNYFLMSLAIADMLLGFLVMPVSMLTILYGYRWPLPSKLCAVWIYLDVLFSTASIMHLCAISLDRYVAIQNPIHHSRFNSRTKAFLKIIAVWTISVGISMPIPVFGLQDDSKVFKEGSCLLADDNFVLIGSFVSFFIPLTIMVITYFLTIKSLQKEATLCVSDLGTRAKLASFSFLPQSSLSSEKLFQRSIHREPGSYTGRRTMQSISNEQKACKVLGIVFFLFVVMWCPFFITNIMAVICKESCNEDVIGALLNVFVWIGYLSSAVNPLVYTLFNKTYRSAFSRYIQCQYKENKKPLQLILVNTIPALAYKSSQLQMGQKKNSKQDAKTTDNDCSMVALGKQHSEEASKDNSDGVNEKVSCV
# 5-HT2 receptor = details: daily administration; cited from earlier work
# [4] = controlled setting; cited from earlier work
# [5] = tested on: brain's default mode network; details: intravenously administered; cited from earlier work
# [6] = tested on: subpopulations of low attentive and low motivated rats; details: rat, in vivo; cited from earlier work
smiles,measurement,setting,value
"CN(C)CCc1c[nH]c2cccc(OP(=O)(O)O)c12 [Psilocybin, 4-phosphoryloxy-N,N-dimethyltrypatmine]",anti-depressant and anxiolytic effects,[1],significant and sustained anti-depressant and anxiolytic effects
same,K (i) for 5-HT2A and 5-HT2C relative to LSD,[2],lower K (i) for both 5-HT2A and 5-HT2C receptors than LSD
same,absolute metabolic rate of glucose,[3],"increased absolute metabolic rate of glucose in frontal, and to a lesser extent in other, cortical regions as well as in striatal and limbic subcortical structures"
same,abstinence rate,tobacco use disorder; 12 months follow-up,67%
same,abstinence rate,tobacco use disorder; six months follow-up,80%
same,"affinity for 5-HT2A, human versus rat receptor",human 5-HT2A receptor,stronger affinity for the human 5-HT2A receptor than for the rat receptor
same,5-HT2 receptor density in rat brain,5-HT2 receptor,reduce 5-HT2 receptor density in rat brain
same,headache,[4],"transient, delayed headache, with incidence, duration, and severity increased in a dose-related manner"
same,oscillatory power in areas of the brain's default mode network,[5],decreases in oscillatory power in areas of the brain's default mode network
same,performance on 5 choice serial reaction time and progressive ratio tasks,[6],improved performance on 5 choice serial reaction time and progressive ratio tasks
